System: healthy participants
Assay: N-back sequential letter task
Assay type: in vivo, human
Details: for N-Back 0-back Sensitivity (d’) / N-Back 1-back Sensitivity / N-Back 2-back Sensitivity / N-Back 3-back Sensitivity: mean (SD)
Text: A visually presented N-back sequential letter task was used to assess working memory performance, wherein participants saw a string of consonants (except L, W, and Y), presented in upper case letters, one every 3 s. Four conditions were presented: 0-back, 1-back, 2-back, and 3-back. The main outcome variable of the n-back task was sensitivity (d’) for each of the four conditions, calculated as: d’ = Z (Hit)– Z (False alarms).
Cognitive data: In this exploratory analysis, each outcome variable of the cognitive data was examined in a mixed model analysis of variance with one between-subjects factor of VU319 dose (0, 60, 120, 240, 400, 600 mg) and a within-subjects factor of testing session (pre-dose vs. post-dost administration). Post-hoc analysis compared each of the VU319 dose cohorts against the placebo group. Because the participants were healthy adults with normal cognitive function, we considered effects between no reductions in function to small improvement (d = 0.0–0.20) to be a positive result. For the food effect study, only the participants who received VU319 were examined due to the disproportionately small placebo group (n = 2). A within-subjects ANOVA including food condition (fasted/fed) and testing session (pre-dose vs. post-dose administration) was performed on each outcome variable.
A visually presented N-back sequential letter task (Jonides et al., 1997; Saykin et al., 2004) was used to assess working memory performance, wherein participants saw a string of consonants (except L, W, and Y), presented in upper case letters, one every 3 s. Four conditions were presented: 0-back, 1-back, 2-back, and 3-back. The 0-back control condition required participants to decide if the current letter matched a single target letter that was specified before the epoch began. In each of the 1-back, 2-back, and 3-back conditions, the task is to decide whether the letter currently presented matches the letter that has been presented 1, 2, or 3 back in the sequence. The 0-, 1-, 2-, and 3-back conditions were performed in two blocks of 27 trials each for a total of 216 trials. The blocks were presented in a counterbalanced order such that the same condition was not repeated two times in a row. The main outcome variable of the n-back task was sensitivity (d’) for each of the four conditions, calculated as: d’ = Z (Hit) – Z (False alarms).

[1] = Food effect study 120 mg, Fasting, Post-Drug
[2] = Food effect study 120 mg, Fasting, Pre-Drug
[3] = Food effect study 120 mg, Fed, Post-Drug
[4] = Food effect study 120 mg, Fed, Pre-Drug

Cn1cc2c(-c3cc(F)c(CN4Cc5ncccc5C4=O)c(F)c3)cccc2n1 [VU319]
N-back 2-back d', vs placebo, effect size d (400 mg, p = 0.12): 0.87
N-back 1-back d', vs placebo, effect size d (600 mg, p = 0.12): 0.86
N-Back 0-back Sensitivity (d’) [1]: 5.15 (1.1)
N-Back 1-back Sensitivity [1]: 3.38 (2.09)
N-Back 2-back Sensitivity [1]: 2.3 (1.64)
N-Back 3-back Sensitivity [1]: 1.96 (1.4)
N-Back 0-back Sensitivity (d’) [2]: 4.64 (1.22)
N-Back 1-back Sensitivity [2]: 5.01 (0.93)
N-Back 2-back Sensitivity [2]: 3.79 (1.18)
N-Back 3-back Sensitivity [2]: 2.55 (1.42)
N-Back 0-back Sensitivity (d’) [3]: 4.62 (1.32)
N-Back 1-back Sensitivity [3]: 4.13 (1.6)
N-Back 2-back Sensitivity [3]: 2.89 (1.42)
N-Back 3-back Sensitivity [3]: 2.53 (0.97)
N-Back 0-back Sensitivity (d’) [4]: 4.67 (1.4)
N-Back 1-back Sensitivity [4]: 5.42 (0.99)
N-Back 2-back Sensitivity [4]: 3.75 (1.21)
N-Back 3-back Sensitivity [4]: 2.29 (0.65)
N-Back 0-back Sensitivity (d’) (SAD study, 60 mg, Post-Drug): 5.37 (1.26)
N-Back 1-back Sensitivity (SAD study, 60 mg, Post-Drug): 4.99 (1.48)
N-Back 2-back Sensitivity (SAD study, 60 mg, Post-Drug): 3.12 (1.22)
N-Back 3-back Sensitivity (SAD study, 60 mg, Post-Drug): 2.11 (0.36)
N-Back 0-back Sensitivity (d’) (SAD study, 60 mg, Pre-Drug): 5.64 (0.84)
N-Back 1-back Sensitivity (SAD study, 60 mg, Pre-Drug): 5.01 (1.17)
N-Back 2-back Sensitivity (SAD study, 60 mg, Pre-Drug): 3.35 (0.91)
N-Back 3-back Sensitivity (SAD study, 60 mg, Pre-Drug): 2.65 (0.49)
N-Back 0-back Sensitivity (d’) (SAD study, 120 mg, Post-Drug): 5.37 (1.26)
N-Back 1-back Sensitivity (SAD study, 120 mg, Post-Drug): 4.46 (1.35)
N-Back 2-back Sensitivity (SAD study, 120 mg, Post-Drug): 3.25 (2.19)
N-Back 3-back Sensitivity (SAD study, 120 mg, Post-Drug): 1.75 (1.14)
N-Back 0-back Sensitivity (d’) (SAD study, 120 mg, Pre-Drug): 5.64 (0.84)
N-Back 1-back Sensitivity (SAD study, 120 mg, Pre-Drug): 4.91 (1.08)
N-Back 2-back Sensitivity (SAD study, 120 mg, Pre-Drug): 3.28 (1.98)
N-Back 3-back Sensitivity (SAD study, 120 mg, Pre-Drug): 2.34 (1.12)
N-Back 0-back Sensitivity (d’) (SAD study, 240 mg, Post-Drug): 6.18 (0)
N-Back 1-back Sensitivity (SAD study, 240 mg, Post-Drug): 4.32 (2.3)
N-Back 2-back Sensitivity (SAD study, 240 mg, Post-Drug): 3.42 (2.29)
N-Back 3-back Sensitivity (SAD study, 240 mg, Post-Drug): 1.66 (0.83)
N-Back 0-back Sensitivity (d’) (SAD study, 240 mg, Pre-Drug): 6.18 (0)
N-Back 1-back Sensitivity (SAD study, 240 mg, Pre-Drug): 4.72 (2.02)
N-Back 2-back Sensitivity (SAD study, 240 mg, Pre-Drug): 3.77 (1.84)
N-Back 3-back Sensitivity (SAD study, 240 mg, Pre-Drug): 2.37 (0.81)
N-Back 0-back Sensitivity (d’) (SAD study, 400 mg, Post-Drug): 6.18 (0)
N-Back 1-back Sensitivity (SAD study, 400 mg, Post-Drug): 5.37 (1.26)
N-Back 2-back Sensitivity (SAD study, 400 mg, Post-Drug): 3.6 (1.84)
N-Back 3-back Sensitivity (SAD study, 400 mg, Post-Drug): 2.01 (0.74)
N-Back 0-back Sensitivity (d’) (SAD study, 400 mg, Pre-Drug): 6.18 (0)
N-Back 1-back Sensitivity (SAD study, 400 mg, Pre-Drug): 5.64 (0.84)
N-Back 2-back Sensitivity (SAD study, 400 mg, Pre-Drug): 3.54 (1.69)
N-Back 3-back Sensitivity (SAD study, 400 mg, Pre-Drug): 2.34 (0.74)
N-Back 0-back Sensitivity (d’) (SAD study, 600 mg, Post-Drug): 5.27 (1.43)
N-Back 1-back Sensitivity (SAD study, 600 mg, Post-Drug): 5.09 (1.06)
N-Back 2-back Sensitivity (SAD study, 600 mg, Post-Drug): 4.43 (1.72)
N-Back 3-back Sensitivity (SAD study, 600 mg, Post-Drug): 2.94 (1.3)
N-Back 0-back Sensitivity (d’) (SAD study, 600 mg, Pre-Drug): 5.57 (0.95)
N-Back 1-back Sensitivity (SAD study, 600 mg, Pre-Drug): 5.07 (0.59)
N-Back 2-back Sensitivity (SAD study, 600 mg, Pre-Drug): 4.31 (1.69)
N-Back 3-back Sensitivity (SAD study, 600 mg, Pre-Drug): 3.3 (1.02)
N-back d' score, effect of dose (SAD study, four conditions, all p > 0.2): did not show a significant effect of dose, nor dose by time
N-back 2-back sensitivity, effect of time of testing, effect size d (food effect study, 120 mg, p = 0.004, not related to food condition): 2.55
N-back 1-back sensitivity, effect of time of testing, effect size d (food effect study, 120 mg, p = 0.015, not related to food condition): 2.0
